Measured values reported in patent US7339042B2, “Gene delivery to tumors” (University of Florida Research Foundation, Inc., priority 2003, dated 2008).

How the values were obtained:
[1] = test system: A172 cells; test: Fluorescein peptide uptake by A172 cells, fluorescence microscopy; type: cell-based, human; details: 30 uM peptide, 1 hr, 37° C., serum containing media
Protocol: For fluorescent microscopy studies cells were plated on 2 chamber cover slips at a density of 1×10^4 cells/chamber. Cells were incubated with […] peptide for 30 minutes in completed media, washed with PBS 3× and imaged using a Nikon Axiophot inverted fluorescent microscope. Images were taken using a Spot CCD camera.
Synthetic peptides derived from HIV Tat (Tat) and the Drosophila antennaepedia homeodomain (ANT) were tested for cell uptake by A172 cells (human glioblastomas). The peptides were labeled at the N-terminus with fluorescein. Cells were incubated with 30 uM peptide at 37° C. in serum containing media. Fluorescent micrographs were taken after 1 hr incubation at 37° C. […] The size of the peptide was increased by added an Mdm-2 binding domain derived from P14ARF. This domain was added to the C-terminus of the Tat and ANT peptides. The P14ARF domain was also placed at the N-terminus followed by the Tat peptide. All the peptides were labeled at the N-terminus with fluorescein and cell incubations similar to the Tat and ANT peptides were tested for cellular uptake. […] Both the bright field and fluorescent micrographs show altered cell morphology.

[2] = test system: rat cerebral arteries; test: Cell viability staining of arteries (propidium iodide, H3334) after peptide; type: cell-based; details: after treatment with peptide
Protocol: No PI statined smooth muscle cell nuclei were observed.
(§1) Effect of peptide on endothelial and smooth muscle function was evaluated by histamine (0.3 and 1 μM) and bradykinin (0.5 μM) (endothelium-dependent vasodilators) and 16 and 60 mM KCl (results in dilation and constriction of arteries by hyperpolarizing and depolarizing smooth muscle, respectively). These drug solutions were added to the superfusate and applied to the arteries extraluminally for 10 to 15 min before and after intraluminal perfusion with peptides. Effects of these agents were expressed as percent change in myogenic tone (decrease for dilators and increase for constrictors). Experiments were concluded by exposing the arteries to calcium free PCSF to obtain the passive diameter. Cell viability was determined by adding H3334 (Hoechst viability stain, final concentration 1 μM) and propidium iodide (final concentration 1 μM) to the arteriograph after the peptide incubation. Fluorescent micrographs were taken of the vessels after incubation with peptides and following addition of the vital stains using Till Photonics imaging system (Martinsried, Germany).

[3] = Fusion peptide cell killing, propidium iodide/FACS viability, T98G cells; type: cell-based, human; details: peptides in complete media for 1 hr, Table 2, read-out: % Viable Cells
Protocol: (§2) Other experiments were performed using two glioma cell lines, i.e., T98G and RG2. 1×10^6 cells per well were incubated in 6-well plates with peptides in complete media for 1 hr. Cells were removed from the plate using a cell stripper and the percentage of viable cells was determined by staining with propidium iodide and analyzing by fluorescence activated cell sorting (FACS).
(§3) Cell viability studies were performed by plating the cells under the same conditions as the uptake studies. Cells were incubated with fluorescent peptides for 1 hr at 37° C. The cells were removed from the plate using cell striper. They were labeled with propidium iodide and fluorescein-AM. Percent PI positive cells were determined by FACS.

[4] = test system: T98G cells; test: as above; type: cell-based, human
Protocol: as §2, §3

[5] = test system: endothelial cells and smooth muscle cells of rat cerebral arteries; test: Uptake of fluorescent peptides by pressure-mounted rat cerebral arteries; type: cell-based; details: intraluminal perfusion of fluorescent peptide
Protocol: Tat-P16 peptides were prepared and labeled with fluorescein for use in uptake studies using intact blood vessels isolated from rat brain. Blood vessels were dissected from rat brain and stabilized in an isolated perfusion system in which vessels were attached on either end to catheters and placed under physiological pressure. Following a 10 minute perfusion of the isolated vessels with flurorescent Tat-P16 peptide (1 μM), vessels were examined for uptake of the peptides. […] Within the endothelial cells, the labeled peptides were seen to be localized to the cell nuclei, further confirming uptake of the peptides by the cells.
The peptides are fairly labile in the media and approximately 50% are degraded upon incubation at 37° C. in complete media (qualitative analysis by PAGE) after 1 hour. […] Uptake of these peptides and cell killing activity was tested in a 3 dimensional organ culture using rat cerebral arteries cultured under physiological pressure and flow. A segment of the rat cerebral artery is surgically removed and placed in ringer's solution. Using a surgical stereoscope, the blood vessel is tied at either end to two cannulas on a teflon stage. Ringer's solution is perfused through the lumen of the vessel at a constant rate that maintains physiologic hydrostatic pressure. The fluorescent peptide was introduced intraluminally by perfusing a 1 μM solution of peptide through the lumen over a 10 minute period.
Rats were anesthetized by intraperitoneal injection of pentobarbital sodium (160 mg/kg) and killed by decapitation. The brain was removed and placed in an ice-cold oxygenated physiological cerebrospinal fluid (PCSF, see below for composition). Cerebellar arteries were isolated and mounted in an arteriograph as described previously (Knot and Nelson 1998). The arteriograph was placed on an inverted microscope and the artery was visualized with a monochrome CCD camera coupled to a calibrated video caliper system to measure arterial diameter. The arteries were slowly pressurized to 70 mmHg under no flow conditions using a pressure servo-null system (Living Systems Inc., Burlington Vt.), and warmed to 37° C. while being continuously superfused (5 ml/min) with PCSF bubbled with 21% O2, 5% CO2, 74% N2 (pH 7.35-7.40 in the bath). […] Myogenic tone is calculated by the following equation: Myogenic tone=(Dp−Da)/Dp×100
(§4) In some experiments, the arterial segments were denuded of endothelium by passing an air bubble through the lumen, thus exposing the smooth muscle cells to luminally administered peptides. Constriction to pressure and 60 mM KCl and dilation of arteries with myogenic tone to 16 mM KCl were used as benchmarks of functional arteries. Peptide containing PCSF was perfused intraluminally at an inlet pressure of 70 mmHg with the outlet open, for 20 min and then perfused with normal PCSF. This procedure ensures a 20 min of exposure of the arteries to the peptide.

[6] = test system: rat cerebral arteries; test: Vasodilation and vasoconstriction response of rat cerebral arteries before and after peptide; type: cell-based; details: after vs before intraluminal peptide
Protocol: The blood vessels were put in culture described above and perfused with buffer of the same composition as cerebrospinal fluid. Vessel diameter was measured before and after administration of each reagent. 3 μM of each peptide was perfused through for 10 minutes followed by a 10 minute wash through. Vasoconstriction and vasodilation were determined for each vessel before peptide was applied. Perfusion was continued until the vessels relaxed to their original diamter (approximately 30 minutes). The vasoconstriction and vasodilation reponse was remeasured after the 10 minute wash through. The 60 mM KCl and 16 mM KCl conditions are […], respectively. Histamine and Bradykinin are endothelial cell vasodilators.
as §4, §1

C[C@H](N)C(=O)NCC(=O)NCC(=O)NCC(=O)N[C@@H](Cc1ccc(O)cc1)C(=O)NCC(=O)N[C@@H](CCCNC(=N)N)C(=O)N[C@@H](CCCCN)C(=O)N[C@@H](CCCCN)C(=O)N[C@@H](CCCNC(=N)N)C(=O)N[C@@H](CCCNC(=N)N)C(=O)N[C@@H](CCC(N)=O)C(=O)N[C@@H](CCCNC(=N)N)C(=O)N[C@@H](CCCNC(=N)N)C(=O)N[C@@H](CCCNC(=N)N)C(=O)O [Tat]
staining pattern (cell uptake) [1]: intracellular punctate | propidium iodide staining of blood vessels [2]: no PI stained nuclei | viability [3]: 94.9% | % killing (toxicity) ([4]; 10 μM peptide, 1 hr): no toxicity | % Viable Cells ([4]; peptides in complete media for 1 hr, Table 2): ineffective | labeling/uptake by endothelial cells [5]: selectively labeling the endothelial nuclei | labeling/uptake by smooth muscle cells [5]: did not label the smooth muscle cells | endothelium-dependent dilation to histamine and bradykinin [6]: responsive to all stimuli | smooth muscle response to 60 and 16 mM KCl [6]: responsive to all stimuli
